Results published in patent US6872749B2, “Method for supplying bioavailable methionine to a cow” (Adisseo Ireland Limited, priority 1998, dated 2005).
Where two headings read alike, the source gives them in different places. One block for each compound: values may come before it.

Columns and labels:
[1] = incubation for six hours in rumen juices; cited from earlier work
cows = test: Milk production of dairy cows given ester supplement (Examples 4 and 6); format: in vivo, cow; settings: for Butter Content of Milk / Daily amount of milk / Protein content of Milk: supplement providing 12.5 g of bioavailable methionine per animal per day, 16 cows; for Effect of addition to the diet on milk composition: versus control, Table 5
Source text: The isopropyl ester of the hydroxy analogue of methionine was given to 16 cows over a period of 8 weeks. Each cow was given daily corn silage and a supplement to cover 100% of requirement and a 115% PDIE (protein digestible in the intestine) requirement.
The supplements were given to the cows according to the following schedule: […]

in vivo = settings: bovine
Description: The kinetics of availability of methionine and HMB in the bloodstream were determined for the isopropyl ester of the hydroxy analogue of methionine and compared with the hydroxy analogue of methionine (a compound not according to the present invention).
The procedure of Example 2 was repeated wherein samples of the isopropyl ester of the hydroxy analogue (69 g) and the hydroxy analogue (Alimet™-57 g) were given to four cows.

[2] = bovine, in vivo
Description: Spot doses of the following amounts of the esters prepared as detailed above, equating to 50 g of methionine equivalent, were given to 2 cows in the manner described in Example 2(b1) above. • methyl ester of HMB: 64.8 g • ethyl ester of HMB: 74.8 g • isopropyl ester of HMB: 80.5 g • n-butyl ester of HMB: 96 g • cyclohexyl ester of HMB: 97.5 g • see butyl ester of HMB: 79 g The concentration of methionine and HMB was measured over a period of 27 hours.
56 g of methyl methioninate and 72 g of n-propyl methioninate (providing an equivalent 50 g of DL-methionine), prepared as detailed above, were supplied to two cows as a spot dose at 7.45 am just before the morning feed.
The ration given to the cows was distributed as two equal meals at 08.00 hours and 16.00 hours comprised 7 kg of hay and 2 kg concentrate.
Samples of blood were taken by jugular vein puncture 09.00, 10.00, 11.00, 13.00 and 15.00 hours on the day where the ester was given to the animal and at 09.00, 12.00 and 15.00 hours on the day before and two days after supply.
The plasma from each sample was isolated from the blood samples by centrifuging the blood at 3000 revs per minute for 10 minutes. The samples were stored in a freezer. The assay for methionine was carried out according to the standard procedure of Moore and Stein.
The results were plotted using the conventional AUC method wherein the areas under the curves are calculated to obtain the bioavailability values for each ester.

[3] = Bioavailability of esters of methionine after spot dose to cows (Example 2); format: in vivo, cow; settings: bovine, in vivo
Description: The bioavailability of the esters was evaluated.
The samples were stored in a freezer.
The procedure of (b1) was repeated using 72 g of methionine ethyl ester hydrochloride, prepared as detailed above
• cyclohexyl methioninate: 122 g • methionine methyl ester hydrochloride: 73 g • sec butyl methioninate: 72 g

[4] = dose of methionine equivalent to 50 g per day per cow; cited from earlier work

Compound: CSCC[C@H](N)C(=O)O [methionine]
- amount remaining after incubation in rumen juices [1]: 34%

Compound: CSCCC(O)C(=O)O (centres unmarked) [HMB, 2-hydroxy-4-(methylthio) butanoic acid]
- amount remaining after incubation in rumen juices [1]: 85%
- Blood plasma HMB concentration (in vivo; 0 min): 0.00 mg/100 g of plasma
- Blood plasma HMB concentration (in vivo; 10 min): 0.00 mg/100 g of plasma
- Blood plasma HMB concentration (in vivo; 20 min): 0.00 mg/100 g of plasma
- Blood plasma HMB concentration (in vivo; 30 min): 0.00 mg/100 g of plasma
- Blood plasma HMB concentration (in vivo; 40 min): 0.00 mg/100 g of plasma
- Blood plasma HMB concentration (in vivo; 50 min): 0.00 mg/100 g of plasma
- Blood plasma HMB concentration (in vivo; 60 min): 0.00 mg/100 g of plasma
- Blood plasma HMB concentration (in vivo; 75 min): 0.00 mg/100 g of plasma
- Blood plasma HMB concentration (in vivo; 90 min): 0.00 mg/100 g of plasma
- concentration at 0 min (in vivo; Blood plasma HMB concentration): 0 ng/g
- concentration at 10 min (in vivo; Blood plasma HMB concentration): 0 ng/g
- concentration at 20 min (in vivo; Blood plasma HMB concentration): 0 ng/g
- concentration at 30 min (in vivo; Blood plasma HMB concentration): 0 ng/g
- concentration at 40 min (in vivo; Blood plasma HMB concentration): 0 ng/g
- concentration at 50 min (in vivo; Blood plasma HMB concentration): 0 ng/g
- concentration at 60 min (in vivo; Blood plasma HMB concentration): 0 ng/g
- concentration at 75 min (in vivo; Blood plasma HMB concentration): 0 ng/g
- concentration at 90 min (in vivo; Blood plasma HMB concentration): 0 ng/g
- Bioavailability [4]: 3%

Compound: COC(=O)C(O)CCSC (centres unmarked) [Methyl ester of HMB, methyl ester of HMB]
- amount remaining after incubation in rumen juices [1]: 1.8%
- Bioavailability [2]: 39%

Further lines, with some results ahead:

- Blood plasma HMB concentration (in vivo): 0.00 mg/100 g of plasma
- Speed of providing methionine and HMB to the bloodstream (in vivo): much quicker than HMB itself
- Bioavailability [2]: 59%
- appearance of the bioavailability peak in the blood following administration [2]: relatively quickly
- bioavailability of methionine [2]: more than 50%
- methionine equivalent provided to the bloodstream by absorption across the rumen wall [2]: at least 50%
Compound: CSCCC(O)C(=O)OC(C)C (centres unmarked) [Isopropyl ester of HMB, isopropyl ester of the hydroxy analogue of methionine]
- Butter Content of Milk (cows): 44.3 g/kg
- Daily amount of milk (cows): 32.3 kg/cow
- Protein content of Milk (cows): 30.8 g/kg
- Effect of addition to the diet on milk composition (cows): higher fat content and higher protein content

- [met] methionine concentration in blood plasma ([3]; 0 h): 0.33 mg/100 g of blood plasma
- [met] methionine concentration in blood plasma ([3]; 1 h): 3.62 mg/100 g of blood plasma
- [met] methionine concentration in blood plasma ([3]; 2 h): 3.21 mg/100 g of blood plasma
- [met] methionine concentration in blood plasma ([3]; 3 h): 2.86 mg/100 g of blood plasma
- [met] methionine concentration in blood plasma ([3]; 5 h): 2.22 mg/100 g of blood plasma
- [met] methionine concentration in blood plasma ([3]; 7 h): 1.93 mg/100 g of blood plasma
- [met] methionine concentration in blood plasma ([3]; 28 h): 0.35 mg/100 g of blood plasma
- Bioavailability % ([3]; po): 44%
Compound: CSCC[C@H](N)C(=O)OC(C)C [Isopropyl methioninate, isopropyl methioninate]
- Butter Content of Milk (cows): 43.3 g/kg
- Daily amount of milk (cows): 32.7 kg/cow
- Protein content of Milk (cows): 30.6 g/kg
- Effect of addition to the diet on milk composition (cows): higher fat content and higher protein content

- Bioavailability [2]: 35%
Compound: CCOC(=O)C(O)CCSC (centres unmarked) [ethyl ester of HMB]
- amount remaining after incubation in rumen juices [1]: 3%
